Here are results for seven compounds from patent publication US6713268B2, “Methods of identifying ocular hypotensive compounds having reduced hyperpigmentation” (Allergan, Inc., priority 2001, dated 2004).

“Also recorded” adds a separate entry of the source. Read-outs that look alike come from different tables or passages of the source.

Series [1] has as its system S91 melanoma cells co-cultured with human dermal fibroblasts. As to the kind of experiment: DOPA oxidase (tyrosinase) activity in S91 melanoma cells in transwell co-culture with human dermal fibroblasts. It counts as cell-based. The note with it: increasing concentrations 10^−9 to 10^−5 M, 4 days. The protocol:
(§1) Human dermal fibroblasts and S91 melanoma cells are cultured in low-glucose Dulbecco's Modified Eagle Medium (DMEM) containing 10% fetal calf serum (FCS) supplemented with 2 mM L-glutamine, 100 mg/l sodium pyruvate, 100 U/ml penicillin G, 100 […] and 250 ng/ml amphotericin B at 37° C. with 5% CO2. For tyrosinase and melanogenesis assays, the FCS concentration is reduced to 1% during the incubation period.
(§2) S91 cells are plated at 10^5 cells/well in 6-well plates and allowed to attach overnight. For transwell studies, cells from a human dermal fibroblast cell line are plated on the transwell insert at 10^3 cells/well and allowed to attach overnight. Melanoma cells are plated in an initial excess over fibroblasts; preferably at a ratio between about 1:30 and about 1:1000, more preferably at a ratio between about 1:50 and about 1:300; most preferably at a ratio of about 1:100. For primary cells, cells are cultured at a ratio of fibroblasts to melanocytes of about 1:2 to about 1:50; preferably about 1:5 to about 1:20, even more preferably about 1:10. The added test agents generally stimulate fibroblast proliferation; thus the use of the transwell permits separate enumeration of the melanocytes.
(§3) Test agents are added every other day of the assay period, with no exchange of medium.
(§4) For DOPA oxidase (tyrosinase) activity, the cells were incubated for four days in this case and the S91 cells were collected in a lysis buffer. The cell suspension was subjected to one freeze/thaw cycle (−80° C.) and vortexed to extract the cytosolic cell contents. After centrifugation for 30 minutes at 16,000×g at 4° C., aliquots of the supernatant were used in a Bradford assay to determine protein concentration or incubated with d-DOPA or l-DOPA as substrates. The optical density was measured for up to 6 hours at 490 nm.
Cloudman S91 melanoma cells (ATCC CCL-53.1) were cultured either in the presence or absence of human dermal fibroblast cells (ATCC CRL-2097) as described above. The added drugs were: arachidonic acid, anandamide, Compound C, Compound A, Compound D, Compound […], and Compound E.

Series [2] deals with S91 melanoma cells. Kind of series: DOPA oxidase (tyrosinase) activity in S91 melanoma cells cultured alone. In kind it is cell-based. How it is done:
as §1, §2, §3, §4
Cloudman S91 melanoma cells (ATCC CCL-53.1) were cultured either in the presence or absence of human dermal fibroblast cells (ATCC CRL-2097) as described above. […]

Series [3] has as its system S91 melanoma cells. Kind of series: Cell proliferation assay of S91 melanoma cells. It counts as cell-based. The protocol: as §1, §2, §3
For the cell proliferation assay, melanoma cells were washed with Hanks BSS, trypsinized and counted with a hemacytometer.

For series [4], the system named is S91 melanoma cells. Kind of series: Melanin assay in S91 cells. In kind it is cell-based. The note with it: S91 cells not in transwell cultures. How it is done:
as §1
as §2, with “The added test agents generally stimulate fibroblast proliferation; thus the use of the transwell permits separate enumeration of the melanocytes.” left out
For the melanin assay, cells were incubated for 5 days. […] After centrifugation for 30 min at 16,000×g at room temperature, the optical density of the supernatant was measured at 475 nm and compared to a standard curve obtained with synthetic melanin.

The test system of series [5] is iris. The note with it: patients; cited from earlier work.
Series [6] deals with iris. Kind of series: One year topical monkey study, darkening of the iris. The note with it: once daily 35 microliter drop in one eye for one year; scale 0-3; untreated eyes baseline 1.
Experimental: (§5) The other eye is left untreated. A total of 8 animals is treated within each treatment group. At the end of the one year study period darkening of the treated eye is compared to a photograph of the same eye prior to treatment, and scored using the following scale:
For series [7], the target named is T1, FP receptor (Homo sapiens, UniProt P43088). Kind of series: FLIPR calcium signaling in HEK-293 cells stably transfected with the human FP receptor. It counts as cell-based. Also on record: expressed in transfected cells; host or cells: HEK-293. The note with it: HEK-293 human FP; for concentration at which FP receptor stimulation plateaus / concentration at which the FP receptor is stimulated (calcium signal): FLIPR, Fluo-4; for concentration at which the FP receptor is stimulated (calcium signal): onset of effect; for stimulation of the human FP receptor: calcium signal, about 10^−11 to 10^−8 M. How it is done:
Human embryonic kidney cells of line HEK-293 are stably transfected with an expression vector encoding the human FP receptor. Cells were cultured in low Glucose Dulbecco's Modified Eagles Medium containing 10% fetal calf serum, 2 mM L-glutamine, 100 mg/l sodium pyruvate, 100 U/ml penicillin G, […] streptomycin, 250 μg/ml G418 200 μg/ml hygromycin and 250 ng/ml amphotericin B at 37° C. with 5% CO2. Cells were seeded on poly-D-lysine-coated 96-well plates at 5000/well, and cultured overnight before the experiment. The cells are cultured in the presence, respectively, of: latanoprost-free acid, fluprostenol, Compound A, Compound B, and assayed using a FLIPR (fluorescence imaging plate reader) using the calcium activated fluorescent dye Fluo-4 as an indicator of free intracellular calcium. As stimulation of the FP receptor is known to cause in increase in free intracellular calcium release, this experiment is designed to determine when the test compounds are capable of stimulating the human FP receptor.

Series [8] relates to iris. The note with it: monkey, in vivo.
Experimental: as §5
The test system of series [9] is S91 "Cloudman" melanoma cell line. Conditions: cited from earlier work.
Another series deals with melanocytes. Conditions: cited from earlier work.
Another series relates to S91 cells. Conditions: native S91 cells; cited from earlier work.
Series [10] addresses T1, FP receptor. Also noted: host or cells: S91 'Cloudman' melanoma cells, stably transfected. The note with it: cited from earlier work.

T1 sequence (P43088 whole entry): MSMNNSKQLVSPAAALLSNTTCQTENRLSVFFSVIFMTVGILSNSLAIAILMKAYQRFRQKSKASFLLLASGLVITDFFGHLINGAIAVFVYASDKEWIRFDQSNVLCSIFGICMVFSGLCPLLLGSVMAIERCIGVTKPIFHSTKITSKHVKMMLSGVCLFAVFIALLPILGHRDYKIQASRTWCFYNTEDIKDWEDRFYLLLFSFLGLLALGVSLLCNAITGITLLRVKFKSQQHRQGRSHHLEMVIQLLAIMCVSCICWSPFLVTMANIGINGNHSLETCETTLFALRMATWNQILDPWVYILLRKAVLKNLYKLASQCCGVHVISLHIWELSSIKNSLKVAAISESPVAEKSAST

For the compound `CC(C)OC(=O)CCC/C=C\C[C@@H]1[C@@H](CC[C@@H](O)CCc2ccccc2)[C@H](O)C[C@@H]1O` [latanoprost], the “tyrosinase (DOPA oxidase) activity” value in series [1] is “stimulate increased production of tyrosinase; also recorded: dose-dependent effect”. Moreover, in the series with S91 melanoma cells [2] (S91 cells not in transwell cultures, 10^−5 M), the tyrosinase activity entry is on record as “enhancement”. The DOPA oxidase activity result with S91 melanoma cells [2] (S91 cells not in transwell cultures, up to 10^−6 M) was “no appreciable change”. Moreover, the S91 cell proliferation entry with S91 melanoma cells [3] (10^−5 M, with or without fibroblasts) is recorded as “decrease”. In addition, the S91 cell proliferation entry in the series on S91 melanoma cells [3] (10^−9 to 10^−6 M, with or without fibroblasts) is reported as “little effect”. The melanin formation result with S91 melanoma cells [4] (10^−5 M) was “enhancement”. The melanin formation entry with S91 melanoma cells [4] (up to 10^−6 M) is on record as “no appreciable change”. Moreover, in the series on iris [5], the “human eyes with increase in brown pigment in the iris” value is given as 5-15%. The “darkening of the treated eye (iris), score” value in the series with iris [6] is given as 2. For the same compound, on FP receptor [7], the “concentration at which FP receptor stimulation plateaus” value was “about 10^−8 M”, the “concentration at which the FP receptor is stimulated (calcium signal)” value is listed as “about 10^−11 M” and the “stimulation of the human FP receptor” value is listed as “stimulate”.
For the compound `CCNC(=O)CCC/C=C\C[C@@H]1[C@@H](/C=C/[C@@H](O)CCc2ccccc2)[C@H](O)C[C@@H]1O` [Compound A], the “tyrosinase (DOPA oxidase) activity” value in series [1] is recorded as “no significant changes”. Moreover, the “darkening of the treated eye (iris), score” value with iris [8] is recorded as “about 1.1”.
Regarding melanocyte-stimulating hormone [MSH], in series [9], the “melanogenesis / melanin production” value is given as “able to simulate melanogenesis”. In addition, in the series on melanocytes, the activity of tyrosinase result is recorded as “appears to stimulate”; the “expression or activity of TRP2 and TRP1” value was “does not increase”.
Regarding `CCCCC/C=C\C/C=C\C/C=C\C/C=C\CCCC(=O)NCCO` [anandamide], in [1], the “tyrosinase (DOPA oxidase) activity” value was “no significant increase”.
Regarding `O=C(O)CCC/C=C\C[C@@H]1[C@@H](/C=C/[C@@H](O)COc2cccc(C(F)(F)F)c2)[C@H](O)C[C@@H]1O` (racemic) [fluprostenol], the “tyrosinase (DOPA oxidase) activity” value in series [1] is listed as “stimulate increased production of tyrosinase; also recorded: dose-dependent effect”. In the series on S91 melanoma cells [3] (10^−9 to 10^−5 M, with or without fibroblast co-cultures), the S91 cell proliferation result was “No effect”. Moreover, on FP receptor [7], the “concentration at which FP receptor stimulation plateaus” value was “about 10^−8 M”, the “concentration at which the FP receptor is stimulated (calcium signal)” value is given as “about 10^−11 M” and the “stimulation of the human FP receptor” value is listed as “stimulate”.
Regarding `CCCCC/C=C\C/C=C\C/C=C\C/C=C\CCCC(=O)O` [arachidonic acid], the “tyrosinase (DOPA oxidase) activity” value in series [1] is “significant increase”; in the series on S91 melanoma cells [2] (S91 without fibroblasts, increasing concentrations 10^−9 to 10^−5 M, 4 days), “smaller increase”.
Regarding `CCCCC[C@H](O)/C=C/[C@@H]1[C@@H](C/C=C\CCCC(=O)O)[C@@H](O)C[C@H]1O` [PGF2α], the “melanogenesis / melanin production” value in [9] was “only at quite high concentrations”. Further, the calcium signal entry in the series with S91 cells is on record as “failed to stimulate a calcium signal”; on FP receptor [10] (FP receptor transfected S91 cells) it was “did not generate a calcium signal”. Further, the “DOPA oxidase (tyrosinase) activity and melanin formation compared with native S91 cells” value on FP receptor [10] (FP receptor transfectants) is “indistinguishable”.
